Values of other authors as cited in patent publication US20040072825A1, “2-(2-(4-((2r)-2-methyl-3-(10h-phenothiazin-10-yl)propyl)-1-piperazinyl)-ethoxy) ethanol, process for the preparation thereof, pharmaceutical compositions containing said compound and therapeutic uses thereof” (priority 2000, published 2004).

System: vomiting and nausea in cancerotherapy
Conditions: patients in cancerotherapy, personal interview; cited from earlier work

Cc1nccn1CC1CCc2c(c3ccccc3n2C)C1=O (centres unmarked) [ondansetron]
effect on nausea (in words): no clear-cut effect against the nausea
effect on vomiting (in words): clearly effective in preventing vomiting
